Assay results reported in PubChem BioAssay (NCI).
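In this assay, cells in 96-well plates receive the compound at five concentrations for 48 hours. Endpoints are linearly interpolated between the surrounding concentrations. At the TGI there is no net growth.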

Columns and labels:
Assay in all cases: growth of human tumour cells (NCI), 48 h
[1] = tested on: 786-0 renal
[2] = tested on: A498 renal
[3] = tested on: A549 NSCLC
[4] = tested on: ACHN renal
[5] = tested on: CAKI-1 renal
[6] = tested on: CCRF-CEM leukemia
[7] = tested on: COLO 205 colon
[8] = tested on: DLD-1 colon
[9] = tested on: DMS 114 small cell lung
[10] = tested on: DMS 273 small cell lung
[11] = tested on: EKVX NSCLC
[12] = tested on: HCC-2998 colon
[13] = tested on: HCT-116 colon
[14] = tested on: HCT-15 colon
[15] = tested on: HL-60(TB) leukemia
[16] = tested on: HOP-18 NSCLC
[17] = tested on: HOP-62 NSCLC
[18] = tested on: HOP-92 NSCLC
[19] = tested on: HT29 colon
[20] = tested on: IGROV1 ovarian
[21] = tested on: K-562 leukemia
[22] = tested on: KM12 colon
[23] = tested on: KM20L2 colon
[24] = tested on: LOX IMVI melanoma
[25] = tested on: LXFL 529 NSCLC
[26] = tested on: M14 melanoma
[27] = tested on: M19-MEL melanoma
[28] = tested on: MALME-3M melanoma
[29] = tested on: MOLT-4 leukemia
[30] = tested on: NCI-H226 lung
[31] = tested on: NCI-H23 lung
[32] = tested on: NCI-H460 lung
[33] = tested on: OVCAR-3 ovarian
[34] = tested on: OVCAR-4 ovarian
[35] = tested on: OVCAR-5 ovarian
[36] = tested on: OVCAR-8 ovarian
[37] = tested on: RPMI-8226 leukemia
[38] = tested on: RXF 393 renal
[39] = tested on: RXF-631 renal
[40] = tested on: SF-268 CNS
[41] = tested on: SF-295 CNS
[42] = tested on: SF-539 CNS
[43] = tested on: SK-MEL-2 melanoma
[44] = tested on: SK-MEL-28 melanoma
[45] = tested on: SK-MEL-5 melanoma
[46] = tested on: SK-OV-3 ovarian
[47] = tested on: SN12C renal
[48] = tested on: SNB-19 CNS
[49] = tested on: SNB-75 CNS
[50] = tested on: SNB-78 CNS
[51] = tested on: SR leukemia
[52] = tested on: SW-620 colon
[53] = tested on: TK-10 renal
[54] = tested on: U251 CNS
[55] = tested on: UACC-257 melanoma
[56] = tested on: UACC-62 melanoma
[57] = tested on: UO-31 renal
[58] = tested on: XF 498 CNS

C=C1CCC(OC(C)=O)C2(C)C(OC(C)=O)CC3OC3(C)C2C(OC(C)=O)C2C(C)C(=O)OC2C1Cl (centres undefined)
TGI [1]: > 100 µM | TGI [2]: > 100 µM | TGI [3]: > 100 µM | TGI [4]: > 100 µM | TGI [5]: > 100 µM | TGI [6]: > 100 µM | TGI [7]: > 100 µM | TGI [8]: > 100 µM | TGI [9]: > 100 µM | TGI [10]: > 100 µM | TGI [11]: > 100 µM | TGI [12]: > 100 µM | TGI [13]: > 100 µM | TGI [14]: > 100 µM | TGI [15]: > 100 µM | TGI [16]: > 100 µM | TGI [17]: > 100 µM | TGI [18]: > 100 µM | TGI [19]: > 100 µM | TGI [20]: > 100 µM | TGI [21]: > 100 µM | TGI [22]: > 100 µM | TGI [23]: > 100 µM | TGI [24]: > 100 µM | TGI [25]: > 100 µM | TGI [26]: > 100 µM | TGI [27]: > 100 µM | TGI [28]: > 100 µM | TGI [29]: > 100 µM | TGI [30]: > 100 µM | TGI [31]: > 100 µM | TGI [32]: > 100 µM | TGI [33]: > 100 µM | TGI [34]: > 100 µM | TGI [35]: > 100 µM | TGI [36]: > 100 µM | TGI [37]: > 100 µM | TGI [38]: > 100 µM | TGI [39]: > 100 µM | TGI [40]: > 100 µM | TGI [41]: > 100 µM | TGI [42]: > 100 µM | TGI [43]: > 100 µM | TGI [44]: > 100 µM | TGI [45]: > 100 µM | TGI [46]: > 100 µM | TGI [47]: > 100 µM | TGI [48]: > 100 µM | TGI [49]: > 100 µM | TGI [50]: > 100 µM | TGI [51]: > 100 µM | TGI [52]: > 100 µM | TGI [53]: > 100 µM | TGI [54]: > 100 µM | TGI [55]: > 100 µM | TGI [56]: > 100 µM | TGI [57]: > 100 µM | TGI [58]: > 100 µM

N#CSCc1nc2ccc(Cl)cc2c(-c2ccccc2)[n+]1[O-]
TGI [1]: 32.1 µM | TGI [2]: > 100 µM | TGI [3]: > 100 µM | TGI [4]: 30.5 µM | TGI [5]: 47.9 µM | TGI [6]: 39.2 µM | TGI [7]: > 100 µM | TGI [9]: 72.5 µM | TGI [11]: 40.9 µM | TGI [12]: 29.1 µM | TGI [13]: 39.7 µM | TGI [14]: 32.5 µM | TGI [15]: 42.9 µM | TGI [16]: 33.6 µM | TGI [17]: > 100 µM | TGI [18]: 34.7 µM | TGI [19]: 35 µM | TGI [21]: 87.7 µM | TGI [22]: 51.9 µM | TGI [23]: 30.8 µM | TGI [24]: 31.9 µM | TGI [25]: 26.8 µM | TGI [26]: 42.1 µM | TGI [27]: > 100 µM | TGI [28]: 62.5 µM | TGI [29]: 41.6 µM | TGI [30]: 64.5 µM | TGI [32]: > 100 µM | TGI [33]: 44.4 µM | TGI [34]: 55.2 µM | TGI [35]: 39 µM | TGI [36]: 38.5 µM | TGI [37]: 54.4 µM | TGI [38]: 26.4 µM | TGI [39]: > 100 µM | TGI [40]: 61.7 µM | TGI [41]: > 100 µM | TGI [43]: 42.3 µM | TGI [44]: 27.7 µM | TGI [47]: 39.5 µM | TGI [48]: > 100 µM | TGI [49]: 88.2 µM | TGI [50]: > 100 µM | TGI [51]: 76.1 µM | TGI [52]: 30.2 µM | TGI [53]: > 100 µM | TGI [54]: 80.6 µM | TGI [55]: > 100 µM | TGI [56]: 36.9 µM | TGI [57]: 32.7 µM | TGI [58]: 33 µM
